The target of assay [1] is IKZF3 protein (Homo sapiens (Human), UniProt Q96SW2+Q9UKT9). As to the kind of experiment: Western-blot assay of substrate protein degradation in hPBMC, IKZF3. The format is cell-based. The settings on record: for residual substrate protein level, IKZF3: hPBMC cells, compound 500 nM, 24 hours, Western blot. In general terms: In western blotting, separated proteins are transferred to a membrane and probed.

For assay [2], the system named is MM.1S cells. As to the kind of experiment: Tumor cell proliferation IC50 (CCK-8), MM.1S.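 Note: viability of cultured cells read by CCK-8 reagent after compound exposure, growth inhibition curves fitted to derive IC50.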 The settings on record: Homo sapiens, MM1.S, 72 h, read-out: IC50 for inhibiting the proliferation of tumor cells, MM.1S.
For assay [3], the system named is CCRF-CEM cells. As to the kind of experiment: Tumor cell proliferation IC50 (CCK-8), CCRF-CEM.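 Note: cell viability measured with CCK-8 reagent after compound treatment, IC50 taken from plotted growth inhibition curves.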 The settings on record: Homo sapiens, 96 h, read-out: IC50 for inhibiting the proliferation of tumor cells, CCRF-CEM.
Description: The tumor cells used herein were cultured in a cell culture medium listed in table A at 37° C. in an incubator with 5% CO2.
After the cells were treated with the compounds of the present disclosure for a period of time, the cell viability detection reagent was added to the culture medium for cell viability assessment according to the instructions provided with the CCK-8 kit. […] The growth inhibition of the compounds of the present disclosure on cells was plotted by Prism Graphpad software, and the IC50 values of the compounds of the present disclosure were calculated therefrom.
Assay [4] addresses IKZF1 protein (Homo sapiens (Human), UniProt Q13422+Q96SW2). As to the kind of experiment: Western-blot assay of substrate protein degradation in hPBMC, IKZF1. The assay is classed as cell-based. The settings on record: for residual substrate protein level, IKZF1: hPBMC cells, compound 500 nM, 24 hours, Western blot.
For assay [5], the target named is GSPT1 protein (Homo sapiens (Human), UniProt P15170+Q96SW2). As to the kind of experiment: Western-blot assay of substrate protein degradation in hPBMC, GSPT1. The format is cell-based. To be noted: for residual substrate protein level, GSPT1: hPBMC cells, compound 500 nM, 24 hours, Western blot.
For assay [6], the target named is human Cereblon WT GST-tagged protein (Homo sapiens (Human), UniProt Q96SW2). Description: CRBN-binding affinity, HTRF (CEREBLON BINDING kit). Summed up: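 HTRF competition readout: compounds compete with a thalidomide-Re conjugate for GST-tagged wild-type human CRBN detected via Eu-labelled anti-GST antibody. Inhibition rate derived relative to protein-free blank wells.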
In general terms: In TR-FRET formats the signal depends on donor and acceptor labels being close together.

The subject of assay [7] is Mino cells. As to the kind of experiment: Tumor cell proliferation IC50 (CCK-8), Mino.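 Note: cell viability assessed with CCK-8 reagent after compound exposure, IC50 derived from plotted growth inhibition curves.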 The settings on record: Homo sapiens, 72 h, read-out: IC50 for inhibiting the proliferation of tumor cells, Mino.
Setting [8] is: hPBMC, 24 h, serially diluted 0.03-1000 nM.

Bounds are passed on as bounds.

human Cereblon WT GST-tagged protein, sequence (Q96SW2 whole entry): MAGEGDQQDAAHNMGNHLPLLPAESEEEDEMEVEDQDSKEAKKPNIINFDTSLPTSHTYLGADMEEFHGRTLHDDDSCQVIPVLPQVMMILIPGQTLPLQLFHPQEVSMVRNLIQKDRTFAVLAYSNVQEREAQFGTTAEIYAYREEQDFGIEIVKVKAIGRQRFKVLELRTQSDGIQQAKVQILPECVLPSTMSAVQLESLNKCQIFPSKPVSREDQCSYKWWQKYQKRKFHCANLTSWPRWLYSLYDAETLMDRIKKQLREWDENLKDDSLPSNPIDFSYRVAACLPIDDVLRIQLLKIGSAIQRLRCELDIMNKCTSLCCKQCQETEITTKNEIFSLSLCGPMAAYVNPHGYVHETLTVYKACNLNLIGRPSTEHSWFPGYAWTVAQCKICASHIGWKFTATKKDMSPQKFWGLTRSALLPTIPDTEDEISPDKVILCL
GSPT1 protein, sequence (P15170 whole entry): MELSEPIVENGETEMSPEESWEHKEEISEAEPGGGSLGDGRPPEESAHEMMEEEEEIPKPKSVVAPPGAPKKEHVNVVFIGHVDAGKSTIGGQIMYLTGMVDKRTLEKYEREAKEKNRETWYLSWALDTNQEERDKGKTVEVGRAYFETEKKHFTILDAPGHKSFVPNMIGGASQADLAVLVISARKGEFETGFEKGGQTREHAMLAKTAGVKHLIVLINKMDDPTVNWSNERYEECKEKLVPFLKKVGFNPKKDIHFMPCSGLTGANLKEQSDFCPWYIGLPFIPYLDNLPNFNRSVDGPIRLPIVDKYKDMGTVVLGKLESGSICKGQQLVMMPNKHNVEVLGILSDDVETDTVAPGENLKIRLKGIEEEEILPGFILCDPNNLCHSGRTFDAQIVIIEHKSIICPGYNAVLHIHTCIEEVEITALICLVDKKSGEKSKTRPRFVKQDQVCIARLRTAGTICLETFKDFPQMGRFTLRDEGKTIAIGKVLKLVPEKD
GSPT1 protein, sequence (Q96SW2 whole entry): as the sequence (Q96SW2 whole entry) above
GSPT1 protein, sequence (Q16531 whole entry partner): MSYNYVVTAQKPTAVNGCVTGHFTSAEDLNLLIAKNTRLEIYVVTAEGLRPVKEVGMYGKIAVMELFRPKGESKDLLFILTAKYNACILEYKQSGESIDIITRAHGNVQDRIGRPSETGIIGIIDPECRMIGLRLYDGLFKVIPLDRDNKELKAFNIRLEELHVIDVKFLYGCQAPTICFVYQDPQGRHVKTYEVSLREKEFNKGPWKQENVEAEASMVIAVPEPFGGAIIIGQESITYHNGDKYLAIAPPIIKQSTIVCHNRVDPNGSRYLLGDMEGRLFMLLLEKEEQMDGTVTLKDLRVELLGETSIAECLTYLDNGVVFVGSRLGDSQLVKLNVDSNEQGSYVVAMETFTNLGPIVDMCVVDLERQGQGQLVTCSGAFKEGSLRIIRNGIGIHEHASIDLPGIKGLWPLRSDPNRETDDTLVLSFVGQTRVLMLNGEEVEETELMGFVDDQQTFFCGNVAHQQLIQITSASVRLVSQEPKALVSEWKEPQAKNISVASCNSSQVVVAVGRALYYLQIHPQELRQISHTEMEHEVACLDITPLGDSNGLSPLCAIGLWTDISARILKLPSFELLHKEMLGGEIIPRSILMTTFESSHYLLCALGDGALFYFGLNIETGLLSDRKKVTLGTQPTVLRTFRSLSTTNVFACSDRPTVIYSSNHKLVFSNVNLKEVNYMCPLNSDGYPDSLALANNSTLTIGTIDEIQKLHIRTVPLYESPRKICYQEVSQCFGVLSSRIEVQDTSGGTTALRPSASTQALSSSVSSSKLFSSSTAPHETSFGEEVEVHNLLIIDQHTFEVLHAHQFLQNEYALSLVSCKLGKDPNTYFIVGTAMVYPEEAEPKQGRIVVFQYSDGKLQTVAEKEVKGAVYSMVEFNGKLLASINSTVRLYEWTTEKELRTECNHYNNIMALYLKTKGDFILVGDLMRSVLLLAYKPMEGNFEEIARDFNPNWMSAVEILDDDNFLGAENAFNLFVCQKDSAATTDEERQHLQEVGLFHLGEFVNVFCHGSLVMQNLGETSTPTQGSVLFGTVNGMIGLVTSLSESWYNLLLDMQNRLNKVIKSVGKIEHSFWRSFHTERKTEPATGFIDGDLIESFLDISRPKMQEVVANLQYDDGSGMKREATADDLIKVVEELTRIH
IKZF1 protein, sequence (Q13422 whole entry): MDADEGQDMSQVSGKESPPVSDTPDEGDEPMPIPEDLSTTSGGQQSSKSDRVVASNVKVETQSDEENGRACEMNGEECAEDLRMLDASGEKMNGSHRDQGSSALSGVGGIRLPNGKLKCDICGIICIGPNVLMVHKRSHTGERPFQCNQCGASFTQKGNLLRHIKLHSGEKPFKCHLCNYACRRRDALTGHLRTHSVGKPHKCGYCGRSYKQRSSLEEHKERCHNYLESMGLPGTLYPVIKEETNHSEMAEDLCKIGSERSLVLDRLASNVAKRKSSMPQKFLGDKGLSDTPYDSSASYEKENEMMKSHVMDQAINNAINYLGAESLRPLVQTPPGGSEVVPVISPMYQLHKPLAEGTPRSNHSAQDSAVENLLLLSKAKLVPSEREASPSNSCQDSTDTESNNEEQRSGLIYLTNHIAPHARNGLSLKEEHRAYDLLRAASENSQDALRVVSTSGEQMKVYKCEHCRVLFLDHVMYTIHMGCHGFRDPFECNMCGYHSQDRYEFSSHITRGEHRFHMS
IKZF1 protein, sequence (Q96SW2 whole entry): as the sequence (Q96SW2 whole entry) above
IKZF1 protein, sequence (Q16531 whole entry partner): as the sequence (Q16531 whole entry partner) above
IKZF3 protein, sequence (Q9UKT9 whole entry): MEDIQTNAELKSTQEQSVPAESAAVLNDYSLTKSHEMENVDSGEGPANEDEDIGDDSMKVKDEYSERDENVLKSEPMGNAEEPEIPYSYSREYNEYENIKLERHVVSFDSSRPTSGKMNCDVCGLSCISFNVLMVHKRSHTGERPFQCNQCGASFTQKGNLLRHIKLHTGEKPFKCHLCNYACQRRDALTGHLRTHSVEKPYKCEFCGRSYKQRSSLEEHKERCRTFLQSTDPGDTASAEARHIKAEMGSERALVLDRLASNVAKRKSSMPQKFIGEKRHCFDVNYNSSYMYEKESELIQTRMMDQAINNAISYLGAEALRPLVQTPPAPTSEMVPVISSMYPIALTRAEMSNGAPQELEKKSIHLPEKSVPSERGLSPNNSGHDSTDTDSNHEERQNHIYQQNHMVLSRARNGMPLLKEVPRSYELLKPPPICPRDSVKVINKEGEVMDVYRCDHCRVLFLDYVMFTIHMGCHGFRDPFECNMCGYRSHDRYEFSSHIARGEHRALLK
IKZF3 protein, sequence (Q96SW2 whole entry): as the sequence (Q96SW2 whole entry) above
IKZF3 protein, sequence (Q16531 whole entry partner): as the sequence (Q16531 whole entry partner) above

Take `CC1(C)CCC(CN2CCN(Cc3ccc4c(c3)C(=O)N(C3CCC(=O)NC3=O)C4=O)CC2)=C(c2ccc(Cl)cc2)C1` (stereo not drawn) [GT-05364, 5-((4-((4′-chloro-5,5-dimethyl-3,4,5,6-tetrahydro-[1,1′-biphenyl]-2-yl)methyl)piperazin-1-yl)methyl)-2-(2,6-dioxopiperidin-3-yl)isoindoline-1,3-dione]: the “residual substrate protein level, IKZF3” value in assay [1] was “A (A represents a residual substrate protein level of <50%)”. Moreover, the IC50 in assay [2] and in assay [3] was 100 to 500 nM in each case. The “residual substrate protein level, IKZF1” value in assay [4] is reported as “A (A represents a residual substrate protein level of <50%)”. In addition, in assay [5], the “residual substrate protein level, GSPT1” value is on record as “A (A represents a residual substrate protein level of <50%)”.
Consider `CC1(C)CCC(C(=O)N2CCN(Cc3cc4c(cc3F)C(=O)N(C3CCC(=O)NC3=O)C4)CC2)=C(c2ccc(Cl)cc2)C1` (stereo not drawn) [GT-05526, 3-(5-((4-(4′-chloro-5,5-dimethyl-3,4,5,6-tetrahydro-[1,1′-biphenyl]-2-carbonyl)piperazin-1-yl)methyl)-6-fluoro-1-oxoisoindolin-2-yl)piperidine-2,6-dione], for which, in assay [1], the “residual substrate protein level, IKZF3” value is recorded as “B (B represents a residual substrate protein level of >50%)”. In addition, the IC50 in assay [3] is 500 to 1000 nM; in assay [6] it was 690 nM. Besides, the “residual substrate protein level, IKZF1” value in assay [4] was “B (B represents a residual substrate protein level of >50%)”. Further, in assay [5], the “residual substrate protein level, GSPT1” value is “A (A represents a residual substrate protein level of <50%)”.
`O=C1CCC(N2Cc3cc(CN4CC5CCC(C4)N5C(=O)c4ccccc4-c4ccc(Cl)cc4)ccc3C2=O)C(=O)N1` (stereo not drawn) [GT-05542, 3-(5-((8-(4′-chloro-[1,1′-biphenyl]-2-carbonyl)-3,8-diazabicyclo[3.2.1]octan-3-yl)methyl)-1-oxoisoindolin-2-yl)piperidine-2,6-dione]: the IC50 was less than 5 nM in assay [7], 10 to 50 nM in assay [2], 10 to 50 nM in assay [3] and 440 nM in assay [6].
As to `O=C1CCC(N2Cc3cc(CN4CC5(CCN(C(=O)c6ccccc6-c6ccc(Cl)cc6)CC5)C4)ccc3C2=O)C(=O)N1` (stereo not drawn) [GT-05620, 3-(5-((7-(4′-chloro-[1,1′-biphenyl]-2-carbonyl)-2,7-diazaspiro[3.5]nonan-2-yl)methyl)-1-oxoisoindolin-2-yl)piperidine-2,6-dione], the IC50 in assay [7] was 100 to 500 nM; in assay [2] it was 10 to 50 nM; in assay [3], 100 to 500 nM; in assay [6] it was 590 nM. Moreover, in assay [1] (setting [8]), the “concentration at which significant degradation effects on IKZF3 protein are exhibited (FIG. 1)” value is recorded as less than 3 nM. Moreover, the “concentration at which significant degradation effects on IKZF1 protein are exhibited (FIG. 1)” value in assay [4] (setting [8]) is less than 3 nM. For the same molecule, the “concentration at which significant degradation effects on GSPT1 protein are exhibited (FIG. 1)” value in assay [5] (setting [8]) is reported as less than 3 nM.
For the molecule `O=C1CCC(N2Cc3cc(C(=O)N4CC5CN(Cc6ccccc6-c6ccc(Cl)cc6)CC5C4)ccc3C2=O)C(=O)N1` (stereo not drawn) [GT-05642, 3-(5-(5-((4′-chloro-[1,1′-biphenyl]-2-yl)methyl)octahydropyrrolo[3,4-c]pyrrole-2-carbonyl)-1-oxoisoindolin-2-yl)piperidine-2,6-dione], the “residual substrate protein level, IKZF3” value in assay [1] is “B (B represents a residual substrate protein level of >50%)”. Further, the IC50 in assay [2] was 100 to 500 nM; in assay [3] it was 50 to 100 nM; in assay [6] it was 490 nM. Besides, the “residual substrate protein level, IKZF1” value in assay [4] is “B (B represents a residual substrate protein level of >50%)”. Moreover, the “residual substrate protein level, GSPT1” value in assay [5] is recorded as “A (A represents a residual substrate protein level of <50%)”.
For `O=C1CCC(N2Cc3cc(C(=O)N4CCC(Nc5ccccc5-c5ccc(Cl)cc5)CC4)ccc3C2=O)C(=O)N1` (stereo not drawn) [GT-05646, 3-(5-(4-((4′-chloro-[1,1′-biphenyl]-2-yl)amino)piperidine-1-carbonyl)-1-oxoisoindolin-2-yl)piperidine-2,6-dione], in assay [1], the “residual substrate protein level, IKZF3” value is “B (B represents a residual substrate protein level of >50%)”. Besides, the values for the IC50 in assay [2], in assay [3] and in assay [6] were 100 to 500 nM, 100 to 500 nM and 1020 nM, respectively. The “residual substrate protein level, IKZF1” value in assay [4] is listed as “B (B represents a residual substrate protein level of >50%)”. In addition, the “residual substrate protein level, GSPT1” value in assay [5] is recorded as “A (A represents a residual substrate protein level of <50%)”.
In the case of `CC1(C)CCC(C(=O)N2CC3(CN(Cc4ccc5c(c4)CN(C4CCC(=O)NC4=O)C5=O)C3)C2)=C(c2ccc(Cl)cc2)C1` (stereo not drawn) [GT-05681, 3-(5-((6-(4′-chloro-5,5-dimethyl-3,4,5,6-tetrahydro-[1,1′-biphenyl]-2-carbonyl)-2,6-diazaspiro[3.3]heptan-2-yl)methyl)-1-oxoisoindolin-2-yl)piperidine-2,6-dione], the IC50 in assay [7] is 100 to 500 nM; in assay [2], 50 to 100 nM; in assay [3], 100 to 500 nM; in assay [6] it was 460 nM. In assay [1], the “residual substrate protein level, IKZF3” value is “A (A represents a residual substrate protein level of <50%)”. For the same molecule, in assay [4], the “residual substrate protein level, IKZF1” value was “B (B represents a residual substrate protein level of >50%)”. The “residual substrate protein level, GSPT1” value in assay [5] is given as “A (A represents a residual substrate protein level of <50%)”.
As for `O=C1CCC(N2Cc3cc(CN4CCN(Cc5ccccc5-c5cncs5)CC4)ccc3C2=O)C(=O)N1` (stereo not drawn) [GT-05684, 3-(1-oxo-5-((4-(2-(thiazol-5-yl)benzyl)piperazin-1-yl)methyl)isoindolin-2-yl)piperidine-2,6-dione], the IC50 in assay [7] is 10 to 50 nM; in assay [2], 50 to 100 nM; in assay [3], 100 to 500 nM; in assay [6] it was 540 nM. For the same molecule, in assay [1], the “residual substrate protein level, IKZF3” value was “A (A represents a residual substrate protein level of <50%)”. In assay [4], the “residual substrate protein level, IKZF1” value is on record as “A (A represents a residual substrate protein level of <50%)”. Besides, in assay [5], the “residual substrate protein level, GSPT1” value was “A (A represents a residual substrate protein level of <50%)”.
As for `O=C1CCC(N2Cc3cc(CN4CCN(Cc5ccccc5-c5ccc(Cl)cc5)CC4C(F)(F)F)ccc3C2=O)C(=O)N1` (stereo not drawn) [GT-05711, 3-(5-((4-((4′-chloro-[1,1′-biphenyl]-2-yl)methyl)-2-(trifluoromethyl)piperazin-1-yl)methyl)-1-oxoisoindolin-2-yl)piperidine-2,6-dione], the IC50 is 100 to 500 nM in assay [3] and 490 nM in assay [6].
Consider `CC1(C)CCC(CN2CCN(Cc3ccc4c(c3)CN(C3CCC(=O)NC3=O)C4=O)CC2)=C(c2ccco2)C1` (stereo not drawn) [GT-05790, 3-(5-((4-((2-(furan-2-yl)-4,4-dimethylcyclohex-1-en-1-yl)methyl)piperazin-1-yl)methyl)-1-oxoisoindolin-2-yl)piperidine-2,6-dione], for which the IC50 in assay [7] is 10 to 50 nM; in assay [2] it was 10 to 50 nM; in assay [3] it was 50 to 100 nM; in assay [6], 570 nM.
For the molecule `Cc1ccc(C2=C(CN3CCN(Cc4ccc5c(c4)C(=O)N(C4CCC(=O)NC4=O)C5=O)CC3)CCC(C)(C)C2)cc1` (stereo not drawn) [GT-05793, 2-(2,6-dioxopiperidin-3-yl)-5-((4-((4′,5,5-trimethyl-3,4,5,6-tetrahydro-[1,1′-biphenyl]-2-yl)methyl)piperazin-1-yl)methyl)isoindoline-1,3-dione], the IC50 in assay [7], in assay [2] and in assay [3] was 100 to 500 nM in each case. For the same molecule, the “residual substrate protein level, IKZF3” value in assay [1] is “A (A represents a residual substrate protein level of <50%)”. Moreover, the “residual substrate protein level, IKZF1” value in assay [4] was “B (B represents a residual substrate protein level of >50%)”. Further, the “residual substrate protein level, GSPT1” value in assay [5] is recorded as “A (A represents a residual substrate protein level of <50%)”.
Turning to `CC1(C)CCC(CN2CCN(Cc3ccc4c(c3)CN(C3CCC(=O)NC3=O)C4=O)CC2)=C(c2cnco2)C1` (stereo not drawn) [GT-05848, 3-(5-((4-((4,4-dimethyl-2-(oxazol-5-yl)cyclohex-1-en-1-yl)methyl)piperazin-1-yl)methyl)-1-oxoisoindolin-2-yl)piperidine-2,6-dione], the IC50 in assay [7] is 50 to 100 nM; in assay [2] it was 50 to 100 nM; in assay [6], 710 nM. For the same molecule, in assay [1], the “residual substrate protein level, IKZF3” value is “A (A represents a residual substrate protein level of <50%)”. Besides, the “residual substrate protein level, IKZF1” value in assay [4] is “A (A represents a residual substrate protein level of <50%)”. Moreover, the “residual substrate protein level, GSPT1” value in assay [5] was “B (B represents a residual substrate protein level of >50%)”.
For the molecule `O=C1CCC(N2Cc3cc(CN4CCN(Cc5ccccc5-c5cnco5)CC4)ccc3C2=O)C(=O)N1` (stereo not drawn) [GT-05849, 3-(5-((4-(2-(oxazol-5-yl)benzyl)piperazin-1-yl)methyl)-1-oxoisoindolin-2-yl)piperidine-2,6-dione], the IC50 in assay [7] is 100 to 500 nM; in assay [2], 100 to 500 nM; in assay [6] it was 990 nM. The “residual substrate protein level, IKZF3” value in assay [1] is reported as “A (A represents a residual substrate protein level of <50%)”. In assay [4], the “residual substrate protein level, IKZF1” value is “A (A represents a residual substrate protein level of <50%)”. For the same molecule, the “residual substrate protein level, GSPT1” value in assay [5] is “A (A represents a residual substrate protein level of <50%)”.
Take `CC1(C)CCC(CN2CCN(Cc3cc4c(cc3F)C(=O)N(C3CCC(=O)NC3=O)C4)C(C(F)(F)F)C2)=C(c2ccc(Cl)cc2)C1` (stereo not drawn) [GT-06101, 3-(5-((4-((4′-chloro-5,5-dimethyl-3,4,5,6-tetrahydro-[1,1′-biphenyl]-2-yl)methyl)-2-(trifluoromethyl)piperazin-1-yl)methyl)-6-fluoro-1-oxoisoindolin-2-yl)piperidine-2,6-dione]: the IC50 in assay [3] lay within 500 to 1000 nM.

The record behind these values is patent publication US20260028326A1, “COMPOUND BASED ON ISOINDOLINE-SUBSTITUTED GLUTARIMIDE BACKBONE AND USE THEREOF” (GLUETACS THERAPEUTICS (SHANGHAI) CO., LTD., priority 2022, published 2026).
